Assay results: patent US20240316141A1, “The Use of Thiourea and Thiourea Derivatives As Potentiators of Antibacterial Activity of Peptoids” (The Board of Trustees of the Leland Stanford Junior …, priority 2021, published 2024)

Columns and labels:
[1] = tested on: PA01 ofloxacin induced persister cells; test: Eradication of ofloxacin induced persister cells; format: cell-based, Pseudomonas aeruginosa; conditions: PA01 persister cells from stationary phase culture treated with ofloxacin 5 μg/ml for 24 h
[2] = tested on: bacterial growth; test: MIC of different peptoids in the presence and absence of thiourea; format: cell-based; conditions: presence vs absence of thiourea; FIGS. 6A-6E
[3] = tested on: Staphylococcus aureus; test: MIC of peptoid in the presence and absence of thiourea, 24 h incubation, absorbance at 600 nm; format: cell-based; conditions: presence vs absence of thiourea
Experimental: FIG. 3. The minimum inhibitory concentration (MIC) of peptoid (TM5) in the presence and absence of thiourea was examined. MIC was defined as the lowest concentration of peptoid that will inhibit the bacterial growth (i.e., increasing absorbance at 600 nm) after 24 h incubation.

[4] = tested on: Klebsiella pneumoniae; test: as above; format: cell-based; conditions: Klebsiella pneumoniae (ciprofloxacin-resistant), presence vs absence of thiourea
Experimental: FIG. 2. The minimum inhibitory concentration (MIC) of peptoid (TM5) in the presence and absence of thiourea was examined. MIC was defined as the lowest concentration of peptoid that will inhibit the bacterial growth (i.e., increasing absorbance at 600 nm) after 24 h incubation.

[5] = tested on: Pseudomonas aeruginosa; test: as above; format: cell-based; conditions: presence vs absence of thiourea
Experimental: FIG. 1. The minimum inhibitory concentration (MIC) of peptoid (TM5) in the presence and absence of thiourea was examined. MIC was defined as the lowest concentration of peptoid that will inhibit the bacterial growth (i.e., increasing absorbance at 600 nm) after 24 h incubation.

[6] = tested on: bacterial growth; test: MIC of antimicrobial peptide in the presence and absence of thiourea, 24 hour incubation; format: cell-based; conditions: presence vs absence of thiourea
Experimental: FIG. 7. The minimum inhibitory concentration (MIC) of an antimicrobial peptide (LL-37) in the presence and absence of thiourea was examined. MIC was defined as the lowest concentration of an antimicrobial peptide that will inhibit the bacterial growth (i.e., increasing absorbance at 600 nm) after a 24 hour incubation.

[7] = tested on: bacterial growth; test: MIC of peptoid in the presence and absence of urea, 24 hour incubation; format: cell-based; conditions: MIC of TM5 in presence vs absence of urea
Experimental: FIG. 8. The minimum inhibitory concentration (MIC) of peptoid (TM5) in the presence and absence of urea was examined. MIC was defined as the lowest concentration of peptoid that will inhibit the bacterial growth (i.e., increasing absorbance at 600 nm) after a 24 hour incubation.

H-Ntridec-NLys-Nspe-Nspe-NLys-NH2 [TM5]
effect of thiourea on persister eradication capability [1]: enhance the persister eradication capability
effect of thiourea on antimicrobial activity (MIC) of different peptoids [2]: increases antimicrobial activity
effect of thiourea on minimum inhibitory concentration (MIC) / antimicrobial activity of peptoid [3]: increases antimicrobial activity
effect of thiourea on minimum inhibitory concentration (MIC) / antimicrobial activity of peptoid [4]: increases antimicrobial activity
effect of thiourea on minimum inhibitory concentration (MIC) / antimicrobial activity of peptoid [5]: increases antimicrobial activity

H—(NLys-Nspe(p-Br)-Nspe(p-Br))2—NH2 [TM4]
effect of thiourea on antimicrobial activity (MIC) of different peptoids [2]: increases antimicrobial activity

H-Ntridec-(NLys-Nspe-Nspe(p-Br))2-NLys-NH2 [TM20]
effect of thiourea on antimicrobial activity (MIC) of different peptoids [2]: increases antimicrobial activity

LL-37: antimicrobial peptide (LL-37)
synergy of thiourea with antimicrobial peptide (MIC) [6]: did not synergize

NC(N)=O [urea]
synergy of urea with peptoid TM5 (MIC) [7]: did not synergize

H—(NLys-Nspe-Nspe)3-NLys-Nspe-NLys-NH2 [TM16]
effect of thiourea on antimicrobial activity (MIC) of different peptoids [2]: increases antimicrobial activity
